Assay results published in patent EP1529533A1, “Use of GH secretagogues in hypoxic-ischemic brain injury” (Sahltech I Göteborg AB, priority 2003, dated 2005).
Where a SMILES comes first, the peptide text is derived from it. [ ]: non-standard residue; d: D form. dTrp(2-Me) = Cc1[nH]c2ccccc2c1C[C@@H](N)C(=O)O

Assay: Body temperature, mortality and body weight in the hypoxia-ischemia study
Type: in vivo, rats
Conditions: between the two groups (hexarelin vs. vehicle); data not shown
Text: In a neonatal model that has previously been described (Rice J. E., V. R. C. Brierley, Ann. Neurol. 9 (1981), 1126-35; Hagberg H. et al., Acta Paedeatr. Suppl 442 (1997), 85-88). Seven-day-old out bred Wistar Fue rats were anesthetised with enflurane (3,5% for induction and 1,5% for maintenance) in a mixture of nitrous oxide and oxygen on a snout mask. The left common carotid artery was cut between two prolene sutures (9-0). After anesthesia and surgery the animals were returned to there dams and allowed to recover for 60 minutes. They were thereafter exposed to 60 minutes of hypoxia in a humidified chamber at 36°C with 7.7±0.01% oxygen in nitrogen. The pups were returned to and kept with their dams until they were killed at different time points after the insult Animals were either perfused intracardially with saline and 5% buffered formaldehyde (Histofix; Histolab, Göteborg, Sweden) for preparation of paraffin sections or fresh tissue were immediately frozen in isopenthane on dry ice for preparation of protein homogenates. The animal ethics committee in Gothenburg approved the animal studies.
Animals received daily intracerebral injections of 5 µl solution containing either 5µg hexarelin or vehicle (NaCl 0.9 mg/ml). Injections were headed for the left ventricular at 1.5 mm lateral to the Sagittal suture, 5.7 mm rostral to lambda and 2.8 mm deep to the skull surface with a special made needle of 27 gauge. Injection velocity of 1.5 µl/min with a Hamilton syringe connected to a MCA pump.
Brain injury was evaluated and observer blinded between the study groups using a neuropathological scoring system where injury in cortex was graded from 0-4 with 0 being no observable injury and 4 being confluent infarction encompassing most of the hemisphere. The damage in the hippocampus, thalamus and striatum was assessed regarding both hypothrophy (shrinkage of cells) 0-3 and observable cell injury/infarction 0-3, resulting in a scoring for each region 0-6. The total score 0-22 was the sum score for all the four regions.

Cc1[nH]c2ccccc2c1C[C@@H](NC(=O)[C@@H](N)Cc1cnc[nH]1)C(=O)N[C@@H](C)C(=O)N[C@@H](Cc1c[nH]c2ccccc12)C(=O)N[C@H](Cc1ccccc1)C(=O)N[C@@H](CCCCN)C(N)=O [Hexarelin] (H-H[dTrp(2-Me)]AW[dF]K-NH2)
no differences: body temperature | body weight | mortality
